Experimental data: PMC11246312, “Anthracene detoxification by Laccases from indigenous fungal strains Trichoderma lixii FLU1 and Talaromyces pinophilus FLU12” (Biodegradation, 2024)

What was measured:
TpFLU12L = system: T1, TpFLU12L; assay: residual anthracene by UV absorbance at […] nm after ethyl acetate extraction; Michaelis-Menten fit; type: biochemical, Talaromyces pinophilus; settings: no mediator; anthracene 50-400 mg/L, Na-acetate 50 mM pH 5, Tween 80 1%, 30 °C, laccase 3 U, 96 h
T1 construct: native secreted enzyme purified from anthracene-induced culture (ammonium sulfate, DEAE, Sephadex G-100); blue laccase

TlFLU1L = system: T2, TlFLU1L; assay: as above; type: biochemical, Trichoderma lixii; settings: no mediator; anthracene 50-400 mg/L, Na-acetate 50 mM pH 5, Tween 80 1%, 30 °C, laccase 3 U, 96 h
T2 construct: native secreted enzyme purified from anthracene-induced culture (ammonium sulfate, DEAE, Sephadex G-100); yellow laccase; 44 kDa by SDS-PAGE

## c1ccc2cc3ccccc3cc2c1 [anthracene]
TpFLU12L
  Km (mg/L) / TpFLU12: 73.3 ± 0.07 mg/L
TlFLU1L
  Km (mg/L) / TlFLU1: 173.2 ± 0.06 mg/L
